{"source": "patent US10098879B2", "about": "(priority 2015, dated 2018)", "key": {"Ebola virus": {"system": "Ebola virus", "conditions": "mouse, in vivo, 150 mg/kg; cited from earlier work"}, "Ebola virus (EBOV)": {"system": "Ebola virus (EBOV)", "conditions": "human, in vivo"}}}
{"molecule": "NC(=O)c1nc(F)cnc1O", "note": "[Favipiravir, 6-fluoro-3-hydroxy-2-pyrazinecarboxamide]", "values": [{"measurement": "Biochemical parameters of disease severity", "setting": "Ebola virus", "value": "reduced biochemical parameters of disease severity"}, {"measurement": "Survival", "setting": "Ebola virus", "value": 100, "unit": "%"}, {"measurement": "Virus clearance", "setting": "Ebola virus", "value": "rapid virus clearance"}, {"measurement": "Effect on survival, patients with CT<20", "setting": "Ebola virus (EBOV)", "value": "no indication that favipiravir monotherapy improved survival"}, {"measurement": "Mortality (participants died), baseline CT <20", "setting": "Ebola virus (EBOV)", "value": 85, "unit": "%"}, {"measurement": "Mortality (participants died), baseline CT ≥20", "setting": "Ebola virus (EBOV)", "value": 15, "unit": "%"}, {"measurement": "Mortality in patients with abnormal baseline creatinine values and BCT<20", "setting": "Ebola virus (EBOV)", "value": 100, "unit": "%"}, {"measurement": "Mortality in patients with abnormal baseline creatinine values and BCT≥20", "setting": "Ebola virus (EBOV)", "value": 7, "unit": "%"}, {"measurement": "Mortality rate versus pre-trial figures, patients with CT≥20", "setting": "Ebola virus (EBOV)", "value": "lower mortality rate compared to pre-trial figures"}, {"measurement": "Mortality (participants died), overall", "setting": "Ebola virus (EBOV); po", "value": 48, "unit": "%"}, {"measurement": "Tolerance of the drug", "setting": "Ebola virus (EBOV); po", "value": "well tolerated"}]}
